This is an account of results in BindingDB's records for doi:10.1074/jbc.273.36.23321 (Synaptic Pharmaceutical, 1998).

Residues, ends and D or L forms follow the SMILES beside them.

The target of experiment [1] is T1, Galanin receptor type 3 (Rattus norvegicus, UniProt O88626).
T1 sequence (O88626 whole entry): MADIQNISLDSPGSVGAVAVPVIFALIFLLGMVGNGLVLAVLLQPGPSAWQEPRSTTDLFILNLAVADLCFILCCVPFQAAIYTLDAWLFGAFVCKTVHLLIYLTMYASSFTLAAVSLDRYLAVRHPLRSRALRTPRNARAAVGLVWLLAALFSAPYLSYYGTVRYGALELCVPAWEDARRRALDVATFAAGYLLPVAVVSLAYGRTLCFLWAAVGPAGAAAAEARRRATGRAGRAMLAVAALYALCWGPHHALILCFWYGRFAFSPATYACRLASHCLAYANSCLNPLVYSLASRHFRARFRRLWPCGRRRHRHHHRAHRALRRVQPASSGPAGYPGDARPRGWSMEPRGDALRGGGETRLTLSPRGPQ

The target of the next experiment is T2, Galanin receptor type 2 (Rattus norvegicus, UniProt O08726).
T2 sequence (O08726 whole entry): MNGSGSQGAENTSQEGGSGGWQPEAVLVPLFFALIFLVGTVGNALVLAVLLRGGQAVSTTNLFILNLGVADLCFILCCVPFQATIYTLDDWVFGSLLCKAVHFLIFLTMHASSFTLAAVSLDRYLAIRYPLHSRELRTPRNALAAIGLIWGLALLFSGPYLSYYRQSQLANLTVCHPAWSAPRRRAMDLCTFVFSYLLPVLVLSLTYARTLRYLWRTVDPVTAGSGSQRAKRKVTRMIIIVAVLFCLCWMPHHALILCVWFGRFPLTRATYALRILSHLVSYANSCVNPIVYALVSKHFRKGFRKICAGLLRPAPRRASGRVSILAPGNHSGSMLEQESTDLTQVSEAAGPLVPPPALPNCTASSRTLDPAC

Experiment [2] addresses T3, Galanin receptor type 3 (Homo sapiens, UniProt O60755).
T3 sequence (O60755 whole entry): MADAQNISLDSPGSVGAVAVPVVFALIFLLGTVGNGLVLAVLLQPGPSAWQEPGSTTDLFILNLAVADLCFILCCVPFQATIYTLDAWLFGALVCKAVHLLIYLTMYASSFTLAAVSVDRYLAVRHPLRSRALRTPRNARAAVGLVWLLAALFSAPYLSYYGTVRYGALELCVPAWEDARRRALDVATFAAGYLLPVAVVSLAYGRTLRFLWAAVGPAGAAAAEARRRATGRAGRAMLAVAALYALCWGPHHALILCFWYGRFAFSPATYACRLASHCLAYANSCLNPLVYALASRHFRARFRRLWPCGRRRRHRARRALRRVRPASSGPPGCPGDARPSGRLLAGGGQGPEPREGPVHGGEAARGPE

What is called Ki is a dissociation constant, usually derived from enzyme kinetics or from competition with a known ligand. Low readings indicate tighter binding, high ones weaker binding. For the compound `COc1ccccc1N(CCOc1ccc(C)cc1)C(=O)CN1CCCCC1` [CAS_3043476], the results for the Ki at Galanin receptor type 3 [1], on Galanin receptor type 2 and at Galanin receptor type 3 [2] were 10.5 nM, 1 nM and 39.8 nM, respectively.
Turning to `CC[C@H](C)[C@H](NC(=O)[C@H](Cc1ccc(O)cc1)NC(=O)[C@H](Cc1c[nH]cn1)NC(=O)[C@H](CCCNC(=N)N)NC(=O)[C@@H]1CCCN1C(=O)CNC(=O)[C@H](CC(C)C)NC(=O)[C@H](CC(C)C)NC(=O)[C@H](Cc1ccc(O)cc1)NC(=O)CNC(=O)[C@H](C)NC(=O)[C@H](CO)NC(=O)[C@H](CC(N)=O)NC(=O)[C@H](CC(C)C)NC(=O)[C@@H](NC(=O)[C@H](Cc1c[nH]c2ccccc12)NC(=O)CN)[C@@H](C)O)C(=O)N[C@@H](CC(N)=O)C(=O)N[C@@H](CC(C)C)C(=O)N[C@H](C(=O)N[C@H](C(=O)N[C@@H](CCCNC(=N)N)C(=O)N[C@@H](CCC(N)=O)C(=O)N[C@@H](CCCNC(=N)N)C(=O)N[C@@H](Cc1ccc(O)cc1)C(N)=O)[C@@H](C)O)[C@@H](C)CC` [M32], the Ki at Galanin receptor type 3 [1] was found to be 1.23 nM.
With `CC(C)C[C@H](NC(=O)[C@H](CC(C)C)NC(=O)[C@H](Cc1ccc(O)cc1)NC(=O)CNC(=O)[C@H](C)NC(=O)[C@H](CO)NC(=O)[C@H](CC(N)=O)NC(=O)[C@H](CC(C)C)NC(=O)[C@@H](NC(=O)[C@H](Cc1c[nH]c2ccccc12)NC(=O)CN)[C@@H](C)O)C(=O)NCC(=O)N1CCC[C@H]1C(=O)N1CCC[C@H]1C(=O)N1CCC[C@H]1C(=O)NCC(=O)N[C@@H](Cc1ccccc1)C(=O)N[C@@H](CO)C(=O)N1CCC[C@H]1C(=O)N[C@@H](Cc1ccccc1)C(=O)N[C@@H](CCCN=C(N)N)C(N)=O`, the figures for the Ki on Galanin receptor type 3 [1] and at Galanin receptor type 3 [2] were 2.09 nM and 14.4 nM, respectively.
For `CC(C)C[C@H](NC(=O)[C@H](CC(C)C)NC(=O)[C@@H](Cc1c[nH]c2ccccc12)NC(=O)[C@H](Cc1ccccc1)NC(=O)[C@@H](Cc1c[nH]c2ccccc12)NC(=O)[C@H](CCC(N)=O)NC(=O)[C@H](CCC(N)=O)NC(=O)[C@@H]1CCCN1C(=O)[C@H](CCCCN)NC(=O)[C@@H]1CCCN1C(=O)[C@@H](CCCN=C(N)N)NC(=O)[C@@H]1CCCN1C(=O)CNC(=O)[C@H](CC(C)C)NC(=O)[C@H](CC(C)C)NC(=O)[C@H](Cc1ccc(O)cc1)NC(=O)CNC(=O)[C@H](C)NC(=O)[C@H](CO)NC(=O)[C@H](CC(N)=O)NC(=O)[C@H](CC(C)C)NC(=O)[C@@H](NC(=O)[C@H](Cc1c[nH]c2ccccc12)NC(=O)CN)[C@@H](C)O)C(N)=O` [Gal(1-13)-Std I] (HELM PEPTIDE1{G.W.T.L.N.S.A.G.Y.L.L.G.P.[dR].P.K.P.Q.Q.[dW].F.[dW].L.L.[am]}$$$$V2.0), the results for the Ki on Galanin receptor type 2 and at Galanin receptor type 3 [2] were 0.56 nM and 8.13 nM, respectively.
For the compound `CC[C@H](C)[C@H](NC(=O)[C@H](C)NC(=O)[C@H](Cc1cnc[nH]1)NC(=O)[C@@H]1CCCN1C(=O)CNC(=O)[C@H](CC(C)C)NC(=O)[C@H](CC(C)C)NC(=O)[C@H](Cc1ccc(O)cc1)NC(=O)CNC(=O)[C@H](C)NC(=O)[C@H](CO)NC(=O)[C@H](CC(N)=O)NC(=O)[C@H](CC(C)C)NC(=O)[C@@H](NC(=O)[C@H](Cc1c[nH]c2ccccc12)NC(=O)CN)[C@@H](C)O)C(=O)N[C@@H](CC(=O)O)C(=O)N[C@@H](CC(N)=O)C(=O)N[C@@H](Cc1cnc[nH]1)C(N)=O` [Galanin rat], the Ki at Galanin receptor type 3 [1] was found to be 3.31 nM; on Galanin receptor type 2 it was 1.35 nM; on Galanin receptor type 3 [2], 12.3 nM.
On to H-GWTLNSAGYLLGPPPALALA-NH2 [M40], for which the figures for the Ki at Galanin receptor type 3 [1], at Galanin receptor type 2 and at Galanin receptor type 3 [2] were 79.4 nM, 3.55 nM and 288 nM, respectively.
In the case of `CC[C@H](C)[C@H](NC(=O)[C@H](C)NC(=O)[C@H](Cc1c[nH]cn1)NC(=O)[C@@H]1CCCN1C(=O)CNC(=O)[C@H](CC(C)C)NC(=O)[C@H](CC(C)C)NC(=O)[C@H](Cc1ccc(O)cc1)NC(=O)CNC(=O)[C@H](C)NC(=O)[C@H](CO)NC(=O)[C@H](CC(N)=O)NC(=O)[C@H](CC(C)C)NC(=O)[C@@H](N)[C@@H](C)O)C(=O)N[C@@H](CC(=O)O)C(=O)N[C@@H](CC(N)=O)C(=O)N[C@@H](Cc1c[nH]cn1)C(=O)N[C@@H](CCCNC(=N)N)C(=O)N[C@@H](CO)C(=O)N[C@@H](Cc1ccccc1)C(=O)N[C@@H](Cc1c[nH]cn1)C(=O)N[C@@H](CC(=O)O)C(=O)N[C@@H](CCCCN)C(=O)N[C@@H](Cc1ccc(O)cc1)C(=O)NCC(=O)N[C@@H](CC(C)C)C(=O)N[C@@H](C)C(N)=O` [Galanin (3-29), porcine], the Ki on Galanin receptor type 3 [2] stood at 1000 nM.
As for `CC(C)C[C@H](NC(=O)[C@H](CC(C)C)NC(=O)[C@@H](Cc1c[nH]c2ccccc12)NC(=O)[C@H](Cc1ccccc1)NC(=O)[C@@H](Cc1c[nH]c2ccccc12)NC(=O)[C@H](CCC(N)=O)NC(=O)[C@H](CCC(N)=O)NC(=O)[C@@H]1CCCN1C(=O)[C@H](CCCCN)NC(=O)[C@@H]1CCCN1C(=O)[C@@H](CCCNC(=N)N)NC(=O)[C@@H]1CCCN1C(=O)CNC(=O)[C@H](CC(C)C)NC(=O)[C@H](CC(C)C)NC(=O)[C@H](Cc1ccc(O)cc1)NC(=O)CNC(=O)[C@H](C)NC(=O)[C@H](CO)NC(=O)[C@H](CC(N)=O)NC(=O)[C@H](CC(C)C)NC(=O)[C@@H](NC(=O)[C@H](Cc1c[nH]c2ccccc12)NC(=O)CN)[C@@H](C)O)C(N)=O` [Gal(1-13)-Std I] (HELM PEPTIDE1{G.W.T.L.N.S.A.G.Y.L.L.G.P.[dR].P.K.P.Q.Q.[dW].F.[dW].L.L.[am]}$$$$V2.0), the affinity at Galanin receptor type 3 [1], expressed as Ki, was 4.47 nM.
